From patent US20020028807A1, “Non-nucleoside reverse transcriptase inhibitors” (priority 2000, published 2002)

Tests used:
[1] = molecular target: T1, HIV-1 RT wild-type (WT) (Human immunodeficiency virus type 1 group M subtype B, UniProt P03366); experiment: Reverse transcriptase (RT) assay, wild-type enzyme; assay type: biochemical
T1 construct: an HIV RT clone pKRT2 containing only the RT p66 gene regulated by the lac operon/trc promoter; made in house; host or cells: E. coli JM109, vector pKK233-2
Text: (§1) Among the enzymes for which Human Immunodeficiency Virus (HIV-1) encodes is a reverse transcriptase (1), so-named because it transcribes a DNA copy from an RNA template. This activity can be quantitatively measured in a cell-free enzyme assay and is based upon the observation that reverse transcriptase is able to use a synthetic template poly r(C) primed with a biotinylated oligo d(G) to transcribe a radio-labelled DNA strand utilising 3H-dGTP as a substrate. The assay described below utilises the wild-type enzyme (which is the predominant form of the enzyme observed in patients infected with HIV-1) and can also be used with mutant RT enzymes (for example, Y181C, prepared by site-directed mutagenesis in which the tyrosine residue at codon 181 has been replaced by a cysteine residue) in analogous assay conditions. This assay allows compounds to be evaluated for their effectiveness at inhibiting the mutant enzymes.
(§2) Some HIV-1 IIIB clone BH10 RT mutants were provided by Dr. C.-K. Shih (Boehringer Ingelheim Pharmaceutials Inc., U.S.A.) in the vector pKK233-2 (Pharmacia). Briefly an HIV RT clone pKRT2 containing only the RT p66 gene regulated by the lac operon/trc promoter was obtained from Dr. W. Summers (Yale University) (2). A variety of specific amino acid substitutions were introduced into the wild-type RT gene by site-directed mutagenesis. RT clones were subcloned into the pKK233-2 bacterial expression vector. Clones provided included wild-type, Val106Ala, Tyr181Cys, Tyr188Cys, Tyr188Leu, Gly190Ala and Pro236Leu. Others were made in-house by site-directed mutagenesis of the pKK233-2 RT clones including Lys103Asn, Lys103Asn/Tyr181Cys, Lys103Asn/Leu100Ile, Lys103Asn/Pro225His, and Lys103Asn/Val108Ile.
(§3) Purification of recombinant reverse transcriptase was performed using a combination of methods previously described (3). A single colony from a fresh plate of transformed JM109 cells was used to initiate growth of a pre-culture grown o/n at 37° C. Two liters of growth medium were inoculated with this pre-culture. At OD600˜1.5 (5-6 h at 37° C.), RT gene expression was induced with IPTG (1 mM final), and the fermentation was continued for a few more hours at 37° C. After centrifugation, supernatants were discarded while cell pellets were pooled and stored at −80° C. until purification. Cells were thawed at 4° C. overnight and suspended in lysis buffer (MES 50 mM pH 6, EDTA 1 mM, 10% v/v glyerol, 0.02% w/v OBG, 0.02% w/v sodium azide). Lysozyme was added and the mixture was incubated on ice for 40 minutes. After homogenization using a bounce in presence of lysozyme and sonication, the cells were centrifuged for 30 minutes. Supernatant (S1) was saved and stored at 4° C. The centrifuged pellet was resuspended in extraction buffer (MES 50 mM pH 6, KPO4 50 mM pH 6, KCl 100 mM, 10% v/v glycerol, 0.02% w/v OBG, 0.02% w/v sodium axide) and stirred for 30 minutes at 4° C. This second mixture was centrifuged again and the supernatant (S2) was saved. The above procedure was repeated 2 more times saving supernatants S3 and S4 and one last extraction was performed overnight (S5). Polymin P (0.005% final) was added to the combined supernatants to remove nucleic acids. This solution was stirred for 75 minutes at 4° C. and centrifuged for 1 h. The supernatant (SS1) was precipitated on ice with 20% w/v ammonium sulfate and stirred for 1 h at 4° C. The mixture was then centrifuged and the resulting supernatant (SS2) was precipitated with additional 40% w/v ammonium sulfate (60% total), stirred for 1 h and centrifuged again. The final pellet (P1) was stored overnight at 4° C. before undergoing purification the following day. All steps of the purification were performed at 4° C. unless otherwise stated.
(§4) Pellet (P1) was resuspended into MES 50 mM pH 6, KPO4 10 mM pH 6, KCl 100 mM, 10% v/v glycerol, 0.02% w/v OBG, 0.02% w/v sodium azide. The suspension was dialysis against the same buffer overnight using 12-14 kD MWCO dialysis tubing. […]

[2] = molecular target: T2, HIV-1 RT K103N (Human immunodeficiency virus type 1 group M subtype B, UniProt P03366, K702N); experiment: Reverse transcriptase (RT) assay, K103N mutant; assay type: biochemical
T2 construct: an HIV RT clone pKRT2 containing only the RT p66 gene regulated by the lac operon/trc promoter; made in house; host or cells: E. coli JM109, vector pKK233-2
Text: as §1, §2, §3, §4

[3] = molecular target: T3, HIV-1 RT Y181C (Human immunodeficiency virus type 1 group M subtype B, UniProt P03366, Y780C); experiment: Reverse transcriptase (RT) assay, Y181C mutant; assay type: biochemical
T3 construct: an HIV RT clone pKRT2 containing only the RT p66 gene regulated by the lac operon/trc promoter; made in house; host or cells: E. coli JM109, vector pKK233-2
Text: as §1, §2, §3, §4

[4] = molecular target: T4, HIV-1 RT V106A (Human immunodeficiency virus type 1 group M subtype B, UniProt P03366, V705A); experiment: Reverse transcriptase (RT) assay, V106A mutant; assay type: biochemical
T4 construct: an HIV RT clone pKRT2 containing only the RT p66 gene regulated by the lac operon/trc promoter; made in house; host or cells: E. coli JM109, vector pKK233-2
Text: as §1, §2, §3, §4

[5] = molecular target: T5, HIV-1 RT Y188L (Human immunodeficiency virus type 1 group M subtype B, UniProt P03366, Y787L); experiment: Reverse transcriptase (RT) assay, Y188L mutant; assay type: biochemical
T5 construct: an HIV RT clone pKRT2 containing only the RT p66 gene regulated by the lac operon/trc promoter; made in house; host or cells: E. coli JM109, vector pKK233-2
Text: as §1, §2, §3, §4

[6] = molecular target: T6, HIV-1 RT K103N/Y181C (Human immunodeficiency virus type 1 group M subtype B, UniProt P03366, K702N/Y780C); experiment: Reverse transcriptase (RT) assay, K103N/Y181C mutant; assay type: biochemical
T6 construct: an HIV RT clone pKRT2 containing only the RT p66 gene regulated by the lac operon/trc promoter; made in house; host or cells: E. coli JM109, vector pKK233-2
Text: as §1, §2, §3, §4

[7] = molecular target: T7, HIV-1 RT K103N/P225H (Human immunodeficiency virus type 1 group M subtype B, UniProt P03366, K702N/P824H); experiment: Reverse transcriptase (RT) assay, K103N/P225H mutant; assay type: biochemical
T7 construct: an HIV RT clone pKRT2 containing only the RT p66 gene regulated by the lac operon/trc promoter; made in house; host or cells: E. coli JM109, vector pKK233-2
Text: as §1, §2, §3, §4

[8] = molecular target: T8, HIV-1 RT K103N/V108I (Human immunodeficiency virus type 1 group M subtype B, UniProt P03366, K702N/V707I); experiment: Reverse transcriptase (RT) assay, K103N/V108I mutant; assay type: biochemical
T8 construct: an HIV RT clone pKRT2 containing only the RT p66 gene regulated by the lac operon/trc promoter; made in house; host or cells: E. coli JM109, vector pKK233-2
Text: as §1, §2, §3, §4

[9] = molecular target: T9, HIV-1 RT K103N/L100I (Human immunodeficiency virus type 1 group M subtype B, UniProt P03366, K702N/L699I); experiment: Reverse transcriptase (RT) assay, K103N/L100I mutant; assay type: biochemical
T9 construct: an HIV RT clone pKRT2 containing only the RT p66 gene regulated by the lac operon/trc promoter; made in house; host or cells: E. coli JM109, vector pKK233-2
Text: as §1, §2, §3, §4

[10] = test system: HIV coding for wild-type reverse transcriptase (WT RT); experiment: ELISA (p24) assay of HIV replication in C8166 cell culture, wild-type RT virus; assay type: cell-based, HIV-1; settings: Human immunodeficiency virus 1, C8166, 72 h, read-out: EC50 WT RT
Description: Compounds of the invention were tested for their ability to inhibit HIV replication in cell culture in a 96-well plate assay. Complete RPMI 1640, consisting of RPMI 1640+10% fetal bovine serum, 10 μg/ml gentamycin and 10 μM β-mercaptoethanol was used for dilution of the compound as well as cell growth medium. The T lymphocyte cell line C8166 was infected at a multiplicity of infection of 0.001 with viruses coding for wild-type and mutant reverse transcriptase. Cells were then incubated for three days in the presence of serial dilutions of the compounds of the invention. The supernatant was pooled from eight replica wells and the concentration of extracellular p24 was determined using a commercially available HIV-1 p24 antigen assay kit (Beckman-Coulter®). The level of inhibition (% inhibition) was calculated with the following equation: [formula]

SMILES | IC50 [1] [nM] | IC50 [2] [nM] | IC50 [3] [nM] | IC50 [4] [nM] | IC50 [5] [nM] | IC50 [6] [nM] | IC50 [7] [nM] | IC50 [8] [nM] | IC50 [9] [nM] | EC50 [10] [nM]
CCN1c2ncc(CCOc3ccnc4ccccc34)cc2C(=O)Nc2c(C)cc(Cl)nc21 [compound 1, 2-Chloro-5,11-dihydro-11-ethyl-4-methyl-8-{2-(4-quinolinyloxy)ethyl}-6H-dipyrido[3,2-b:2′,3′-e][1,4]diazepin-6-one] | 10.5 | 19 | 20 | 132 | 2740 | 52 | 31.2 | 29 | 28.5 | 2.6
Cc1ccnc2c1NC(=O)c1cc(CCOc3ccnc4ccccc34)cnc1N2C1CC1 [compound 3, 11-(Cyclopropyl)-5,11-dihydro-4-methyl-8-{2-(4-quinolinyloxy)ethyl}-6H-dipyrido[3,2-b:2′,3′-e][1,4]diazepin-6-one] | 16.5 | 45 | 73 | 79 | 3240 | 612 | 56 | 47 | 124 | 1.3
CCN1c2ncc(CCOc3ccnc4ccccc34)cc2C(=O)N(C)c2ccc(F)nc21 [compound 4, 5,11-Dihydro-11-ethyl-2-fluoro-5-methyl-8-{2-(4-quinolinyloxy)ethyl}-6H-dipyrido[3,2-b:2′,3′-e][1,4]diazepin-6-one] | 11 | 22.5 | 26 | 206 | 520 | 52 | 27 | 32 | 108 | 0.98
Cc1cc(F)nc2c1NC(=O)c1cc(CCOc3ccnc4ccccc34)cnc1N2C1CC1 [compound 5, 11-(Cyclopropyl)-5,11-dihydro-2-fluoro-4-methyl-8-{2-(4-quinolinyloxy)-ethyl}-6H-dipyrido[3,2-b:2′,3′-e][1,4]diazepin-6-one] | 19 | 37.5 | 76 | 61 | 2540 | 536 | 38 | 38 | 98 | 0.83
CN1C(=O)c2cc(CCOc3ccnc4ccccc34)cnc2N(C2CC2)c2nc(Cl)ccc21 [compound 6, 2-Chloro-11-cyclopropyl-5,11-dihydro-5-methyl-8-{2-(4-quinolinyloxy)-ethyl}-6H-dipyrido[3,2-b:2′,3′-e][1,4]diazepin-6-one] | 25 |  |  |  |  |  |  |  |  | 
CCN1c2ncc(CCOc3ccnc4ccccc34)cc2C(=O)Nc2c(C)cc(F)nc21 [compound 7, 5,11-Dihydro-11-ethyl-2-fluoro-4-methyl-8-{2-(4-quinolinyloxy)ethyl}-6H-dipyrido[3,2-b:2′,3′-e][1,4]diazepin-6-one] | 9.8 | 26 | 38 | 74 | 4320 | 199 | 46 | 45 | 98 | 1.1
CCN1c2ncc(CCOc3ccnc4ccccc34)cc2C(=O)Nc2c(C)ccnc21 [compound 8, 5,11-Dihydro-11-ethyl-4-methyl-8-{2-(4-quinolinyloxy)ethyl}-6H-dipyrido[3,2-b:2′,3′-e][1,4]diazepin-6-one] | 10 | 37 | 43 | 190 | 7510 | 301 | 67 | 63 | 135 | 0.93
CN1C(=O)c2cc(CCOc3cc[n+]([O-])c4ccccc34)cnc2N(C2CC2)c2nc(Cl)ccc21 [compound 10, 2-Chloro-11-cyclopropyl-5,11-dihydro-5-methyl-8-{2-{(1-oxido-4-quinolinyl)oxy}ethyl}-6H-dipyrido[3,2-b:2′,3′-e][1,4]diazepin-6-one] | 41 | 67 | 206 | 1370 | 1420 | 710 |  | 255 | 229 | 
Cc1ccnc2c1NC(=O)c1cc(CCOc3cc[n+]([O-])c4ccccc34)cnc1N2C1CC1 [compound 15] | 61 | 66 | 226 | 206 | > 10000 | 1520 | 93 | 215 | 270 | 
CCN1c2nc(Cl)ccc2NC(=O)c2cc(CCOc3cc[n+]([O-])c4ccccc34)cnc21 [compound 22, 2-Chloro-5,11-dihydro-11-ethyl-8-{2-{(1-oxido-4-quinolinyl)-oxy}ethyl}-6H-dipyrido[3,2-b:2′,3′-e][1,4]diazepin-6-one] | 45 |  |  | 2490 | 2990 | 336 |  |  |  | 
CCN1c2ncc(CCOc3cccc4c3ccc[n+]4[O-])cc2C(=O)Nc2c(C)cc(F)nc21 [compound 23, 5,11-Dihydro-11-ethyl-2-fluoro-4-methyl-8-{2-{(1-oxido-5-quinolinyl)-oxy}ethyl}-6H-dipyrido[3,2-b:2′,3′-e][1,4]diazepin-6-one] | 6.1 |  |  | 105 | 5610 | 247 |  |  |  | 
CCN1C(=O)c2cc(CCOc3cc[n+]([O-])c4ccccc34)cnc2N(CC)c2ncccc21 [compound 27, 5,11-Dihydro-5,11-diethyl-8-{2-{(1-oxido-4-quinolinyl)oxy}ethyl}-6H-dipyrido[3,2-b:2′,3′-e][1,4]diazepin-6-one] | 38 |  |  | 2270 | 5340 | 299 |  |  |  | 
